Series [1] deals with Enteropeptidase (Homo sapiens) (UniProt P98073). Kind of series: Inhibition of full length recombinant human EP expressed in CHO cells assessed as protease activity using […] as substrate at 0.1 uM by fluorescence assay relative to control. Also noted: scale not given: the % may be the effect or the level left.
Series [2] has the same target. Description: Inhibition of full length recombinant human EP expressed in CHO cells assessed as protease activity using […] as substrate at 1 uM by fluorescence assay relative to control. Also noted: scale not given: the % may be the effect or the level left.
For series [3] the target is unchanged. Kind of series: Inhibition of full length recombinant human EP expressed in CHO cells assessed as protease activity using […] as substrate at 10 uM by fluorescence assay relative to control. Also noted: scale not given: the % may be the effect or the level left.
Series [4] is filed under the species Bos taurus. Description: Inhibition of bovine trypsin assessed as protease activity using D-CHA-AR-AMC as substrate at 0.1 uM by fluorescence assay relative to control. Details: scale not given: the % may be the effect or the level left.
The species named for series [5] is Bos taurus. Kind of series: Inhibition of bovine trypsin assessed as protease activity using D-CHA-AR-AMC as substrate at 1 uM by fluorescence assay relative to control. Also noted: scale not given: the % may be the effect or the level left.
For series [6], the species on record is Bos taurus. Kind of series: Inhibition of bovine trypsin assessed as protease activity using D-CHA-AR-AMC as substrate at 10 uM by fluorescence assay relative to control. Details: scale not given: the % may be the effect or the level left.
The nature of series [7]: Apparent permeability from apical to basolateral side in dog MDCK cells. In kind it is ADME, cell-based, Canis lupus familiaris.

The text below walks through data of ChEMBL document CHEMBL4819050, “Discovery of a novel series of guanidinebenzoates as gut-restricted enteropeptidase and trypsin dual inhibitors for the treatment of metabolic syndrome” (Bioorg Med Chem Lett, 2021).

Sequence of Enteropeptidase (Homo sapiens) (P98073 2-784 limits assumed): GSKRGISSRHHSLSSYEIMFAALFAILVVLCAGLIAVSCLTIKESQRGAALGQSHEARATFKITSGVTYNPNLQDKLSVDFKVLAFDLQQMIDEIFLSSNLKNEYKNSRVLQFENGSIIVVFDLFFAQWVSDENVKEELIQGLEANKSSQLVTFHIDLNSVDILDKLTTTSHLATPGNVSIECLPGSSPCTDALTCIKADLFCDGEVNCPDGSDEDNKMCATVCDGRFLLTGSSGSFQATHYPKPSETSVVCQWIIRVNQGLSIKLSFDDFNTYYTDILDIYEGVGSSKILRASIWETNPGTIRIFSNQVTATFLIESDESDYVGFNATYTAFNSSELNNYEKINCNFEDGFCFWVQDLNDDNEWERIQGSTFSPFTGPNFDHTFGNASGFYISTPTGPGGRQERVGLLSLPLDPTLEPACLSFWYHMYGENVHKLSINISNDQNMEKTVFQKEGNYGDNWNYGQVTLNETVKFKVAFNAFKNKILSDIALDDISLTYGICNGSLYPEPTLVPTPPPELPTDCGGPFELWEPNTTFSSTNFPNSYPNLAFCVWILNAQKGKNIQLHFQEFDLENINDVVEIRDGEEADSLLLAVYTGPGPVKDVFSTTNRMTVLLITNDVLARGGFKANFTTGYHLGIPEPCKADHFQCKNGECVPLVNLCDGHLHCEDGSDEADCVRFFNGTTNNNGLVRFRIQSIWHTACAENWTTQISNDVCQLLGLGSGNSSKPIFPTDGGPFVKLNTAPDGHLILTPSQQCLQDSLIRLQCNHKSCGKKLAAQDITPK
Sequence of Enteropeptidase (Homo sapiens) (P98073 785-1019 limits assumed): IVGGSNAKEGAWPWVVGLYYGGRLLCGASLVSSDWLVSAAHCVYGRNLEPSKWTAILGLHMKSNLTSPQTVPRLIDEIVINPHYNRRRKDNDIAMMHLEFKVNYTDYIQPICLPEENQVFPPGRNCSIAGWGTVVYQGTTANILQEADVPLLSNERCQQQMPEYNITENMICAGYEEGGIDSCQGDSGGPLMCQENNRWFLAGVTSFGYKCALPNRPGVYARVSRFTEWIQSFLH

Take `N=C(N)Nc1ccc(C(=O)Oc2ccc(Cc3nn[nH]n3)n3ncnc23)cc1`: the Activity in series [1] worked out at 89.7%; in series [2], 101%; in series [3], 100%; in the series listed under Bos taurus [4] it was 89.3%; in the series listed under Bos taurus [5], 100%; in the series filed under Bos taurus [6] it was 100%. Also, the apical-to-basolateral permeability (Papp A→B) in series [7] amounted to 14.5 nm/s.

For the compound `C/N=C(\NC)Nc1ccc(C(=O)Oc2ccc(CC(=O)O)n3ncnc23)cc1`, the Activity in series [1] is 1.35%; in series [2], 1.32%; in series [3], 12.6%; in the series filed under Bos taurus [4], -1.72%; in the series filed under Bos taurus [5], 0.59%; in the series filed under Bos taurus [6], 9.42%.

For the compound `N=C(N)Nc1ccc(C(=O)Oc2cc(CC(=O)O)cn3ncnc23)cc1`, the Activity was 13.1% in series [1]; 58.8% in series [2]; 101% in series [3]; 81.7% in the series listed under Bos taurus [4]; 100% in the series filed under Bos taurus [5]; 100% in the series filed under Bos taurus [6].

In the case of `N=C(N)Nc1ccc(C(=O)Oc2ccc(C3OC(=O)NC3=O)n3ncnc23)cc1` (configuration not stated), the Activity worked out at 73% in series [1]; 101% in series [2]; 100% in series [3]; 99.8% in the series filed under Bos taurus [4]; 100% in the series listed under Bos taurus [5]; 100% in the series filed under Bos taurus [6].

Consider `N=C(N)Nc1ccc(C(=O)Oc2ccc(CC(=O)O)n3ncnc23)cc1O`, for which the Activity in series [1] stood at 34.3%; in series [2], 92.1%; in series [3] it was 101%; in the series listed under Bos taurus [4] it was 12.4%; in the series filed under Bos taurus [5], 73.1%; in the series filed under Bos taurus [6], 100%.

On to `O=C(O)Cc1ccc(OC(=O)c2ccc(NC3=NCCCN3)cc2)c2ncnn12`, for which the Activity in series [1] was 1.03%; in series [2] it was -2%; in series [3], -10.4%; in the series listed under Bos taurus [4], 2.91%; in the series listed under Bos taurus [5], -3.49%; in the series filed under Bos taurus [6], -7.38%.

`N#Cc1cc(C(=O)Oc2ccc(CC(=O)O)n3ncnc23)ccc1NC(=N)N`: the Activity is -3.01% in series [1]; -6.26% in series [2]; 32.1% in series [3]; 0.95% in the series listed under Bos taurus [4]; 12.3% in the series filed under Bos taurus [5]; 29.9% in the series listed under Bos taurus [6].

As to `N=C(NN)c1ccc(C(=O)Oc2ccc(CC(=O)O)n3ncnc23)cc1`, the Activity in series [1] amounted to 0.5%; in series [2], 12.2%; in series [3] it was 51.8%; in the series listed under Bos taurus [4], 1.62%; in the series listed under Bos taurus [5] it was 2.74%; in the series listed under Bos taurus [6], 25.5%.

`COc1cc(C(=O)Oc2ccc(CC(=O)O)n3ncnc23)ccc1NC(=N)N`: the Activity was found to be 20.8% in series [1]; 87.1% in series [2]; 101% in series [3]; 13.8% in the series listed under Bos taurus [4]; 72.4% in the series filed under Bos taurus [5]; 99.9% in the series filed under Bos taurus [6].

In the case of `Cc1cc(C(=O)Oc2ccc(CC(=O)O)n3ncnc23)ccc1NC(=N)N`, the Activity in series [1] turned out to be 1.3%; in series [2], 6.3%; in series [3], 36.7%; in the series listed under Bos taurus [4], 0%; in the series listed under Bos taurus [5] it was 8.4%; in the series filed under Bos taurus [6], 35.5%.

With `N#CNC(=N)c1ccc(C(=O)Oc2ccc(CC(=O)O)n3ncnc23)cc1`, the Activity in series [1] was -1.6%; in series [2], 1.9%; in series [3], 13.6%; in the series listed under Bos taurus [4], -2.06%; in the series listed under Bos taurus [5], 2.46%; in the series listed under Bos taurus [6], 35.8%.

Turning to `N=C(N)Nc1ccc(C(=O)Oc2ccc(CC(=O)O)n3ncnc23)c(F)c1`, the Activity worked out at 99.4% in series [1]; 100% in series [2]; 100% in series [3]; 97.2% in the series filed under Bos taurus [4]; 99.7% in the series listed under Bos taurus [5]; 100% in the series filed under Bos taurus [6].

As to `N=C(N)NCc1ccc(C(=O)Oc2ccc(CC(=O)O)n3ncnc23)cc1`, the Activity in series [1] is 10.9%; in series [2], 43.7%; in series [3] it was 83.6%; in the series listed under Bos taurus [4] it was 3.87%; in the series filed under Bos taurus [5] it was 19.9%; in the series listed under Bos taurus [6], 72.5%.

With `CC(=N)Nc1ccc(C(=O)Oc2ccc(CC(=O)O)n3ncnc23)cc1`, the Activity is 47.8% in series [1]; 99.6% in series [2]; 100% in series [3]; 11.5% in the series listed under Bos taurus [4]; 68% in the series filed under Bos taurus [5]; 99.7% in the series listed under Bos taurus [6].

With `N=C(N)Nc1ccc(C(=O)Oc2ccc(CC(=O)O)n3ncnc23)c2ccoc12`, the Activity was determined as 36.3% in series [1]; 98.8% in series [2]; 100% in series [3]; 14.6% in the series listed under Bos taurus [4]; 80% in the series listed under Bos taurus [5]; 99.9% in the series listed under Bos taurus [6].

For the compound `N=C(N)Nc1ccc(C(=O)Oc2ccc(CC(=O)O)n3ncnc23)c(C(F)(F)F)c1`, the Activity in series [1] came out at 4.14%; in series [2], 38.5%; in series [3] it was 98.9%; in the series listed under Bos taurus [4] it was 2.31%; in the series listed under Bos taurus [5] it was 16.6%; in the series listed under Bos taurus [6] it was 88.7%.

In the case of `Cc1cc(NC(=N)N)ccc1C(=O)Oc1ccc(CC(=O)O)n2ncnc12`, the Activity in series [1] worked out at 10.3%; in series [2] it was 59.9%; in series [3] it was 101%; in the series filed under Bos taurus [4], 9.45%; in the series filed under Bos taurus [5], 49%; in the series filed under Bos taurus [6] it was 99.7%.

Regarding `N=C1NCCN1c1ccc(C(=O)Oc2ccc(CC(=O)O)n3ncnc23)cc1`, the Activity in series [1] is 10.5%; in series [2], 57.9%; in series [3], 93.2%; in the series filed under Bos taurus [4] it was 10.9%; in the series listed under Bos taurus [5], 58.3%; in the series listed under Bos taurus [6], 93%.

In the case of `CNC(=N)c1ccc(C(=O)Oc2ccc(CC(=O)O)n3ncnc23)cc1`, the Activity is -0.79% in series [1]; 11.3% in series [2]; 52.3% in series [3]; 5.66% in the series filed under Bos taurus [4]; 8.66% in the series filed under Bos taurus [5]; 66.5% in the series filed under Bos taurus [6].

For the compound `O=C(O)Cc1ccc(OC(=O)c2ccc(C3=NCCN3)cc2)c2ncnn12`, the Activity in series [1] was 4.69%; in series [2] it was 16.9%; in series [3], 58.6%; in the series filed under Bos taurus [4], -0.36%; in the series listed under Bos taurus [5], 2.66%; in the series filed under Bos taurus [6], 21.6%.

Regarding `CN(C(=N)N)c1ccc(C(=O)Oc2ccc(CC(=O)O)n3ncnc23)cc1`, the Activity in series [1] was 40.5%; in series [2], 93.8%; in series [3] it was 99.3%; in the series listed under Bos taurus [4] it was 31.4%; in the series listed under Bos taurus [5] it was 89.2%; in the series filed under Bos taurus [6] it was 98.9%.

Consider `C/C(=N\O)Nc1ccc(C(=O)Oc2ccc(CC(=O)O)n3ncnc23)cc1`, for which the Activity is -10.7% in series [1]; -10.1% in series [2]; -10.8% in series [3]; -8.04% in the series listed under Bos taurus [4]; -0.45% in the series listed under Bos taurus [5]; 10.1% in the series filed under Bos taurus [6].

Consider `N=C(N)Nc1ccc(C(=O)Oc2ccc(CC(=O)O)n3ncnc23)cc1Cl`, for which the Activity in series [1] is 18.2%; in series [2], 84.4%; in series [3] it was 101%; in the series listed under Bos taurus [4] it was 6.34%; in the series filed under Bos taurus [5] it was 56.6%; in the series listed under Bos taurus [6] it was 99.8%.

On to `N=C(N)Nc1cccc(C(=O)Oc2ccc(CC(=O)O)n3ncnc23)c1`, for which the Activity in series [1] is -11.2%; in series [2] it was -6.7%; in series [3], 6.8%; in the series listed under Bos taurus [4] it was -0.24%; in the series listed under Bos taurus [5], 1.21%; in the series listed under Bos taurus [6] it was 18.6%.

Take `N=C(N)Nc1ccc(C(=O)Oc2ccc(CC(=O)O)n3ncnc23)s1`: the Activity in series [1] is 82%; in series [2] it was 100%; in series [3] it was 100%; in the series listed under Bos taurus [4], 93.8%; in the series listed under Bos taurus [5] it was 99.9%; in the series filed under Bos taurus [6], 99.8%.

`CNC(=N)Nc1ccc(C(=O)Oc2ccc(CC(=O)O)n3ncnc23)cc1`: the Activity in series [1] is 15.3%; in series [2], 80.1%; in series [3], 97.9%; in the series filed under Bos taurus [4], 9.6%; in the series filed under Bos taurus [5] it was 57.1%; in the series listed under Bos taurus [6], 97.7%.

For `N=C(N)Nc1ncc(C(=O)Oc2ccc(CC(=O)O)n3ncnc23)cn1`, the Activity in series [1] is 92.1%; in series [2] it was 99.5%; in series [3], 100%; in the series listed under Bos taurus [4], 96.5%; in the series listed under Bos taurus [5], 100%; in the series filed under Bos taurus [6], 100%.

For `N=C(N)Nc1ccc(C(=O)Oc2ccc(CC(=O)O)n3ncnc23)c(Cl)c1`, the Activity in series [1] is 81.2%; in series [2], 100%; in series [3] it was 100%; in the series filed under Bos taurus [4] it was 43.5%; in the series filed under Bos taurus [5], 97.6%; in the series filed under Bos taurus [6] it was 99.9%.

As for `O=C(O)Cc1ccc(OC(=O)c2ccc(NC3=NCCN3)cc2)c2ncnn12`, the Activity in series [1] was -0.28%; in series [2] it was -2.47%; in series [3], -2.75%; in the series listed under Bos taurus [4], 0.21%; in the series listed under Bos taurus [5], -2.97%; in the series filed under Bos taurus [6], -7.45%.

As to `CONC(=N)c1ccc(C(=O)Oc2ccc(CC(=O)O)n3ncnc23)cc1`, the Activity in series [1] is 2.43%; in series [2], 9.05%; in series [3], 34%; in the series listed under Bos taurus [4], -3.11%; in the series listed under Bos taurus [5] it was -3.33%; in the series listed under Bos taurus [6] it was 18.2%.

For the compound `N=C(N)Nc1ccc(C(=O)Oc2ccc(CCC(=O)O)n3ncnc23)cc1`, the Activity in series [1] turned out to be 35%; in series [2], 101%; in series [3], 100%; in the series listed under Bos taurus [4], 99.8%; in the series filed under Bos taurus [5] it was 100%; in the series listed under Bos taurus [6], 100%.
